# Test system: KIAA0101 expression in LNCaP cells
# Test: Expression of KIAA0101 in LNCaP prostate cancer cells treated with casodex
# Format: cell-based, human
# Method: In order to examine the effect of casodex, an anti-androgen, on the expression of KIAA0101, LNCaP cells (androgen-sensitive prostate cancer cells) were grown to 70% confluence in RPMI-1640 (10% FBS). The cultures were then pretreated for 24 hours in dye-free RPMI-1640 containing 5% charcoal stripped serum. The cultures were then treated with either 1 nM R1881 or 100 […] casodex in RPMI-1640 containing 5% charcoal stripped serum prior to harvesting and extraction of total mRNA for expression analysis.
smiles,measurement,setting,value
CC(O)(CS(=O)(=O)c1ccc(F)cc1)C(=O)Nc1ccc(C#N)c(C(F)(F)F)c1 (centres unmarked) [casodex],decrease (drop) in KIAA0101 expression,"LNCaP cells (androgen-responsive prostate cancer cell line), in the presence of casodex",3 fold
same,KIAA0101 expression lower in the presence of casodex than in the presence of R1881,"LNCaP cells, casodex versus R1881 (androgen agonist, 1 nM)",3 fold
